From patent US9006232B2, “Pyrimidone derivatives” (Mitsubishi Tanabe Pharma Corporation, priority 2009, dated 2015)

These compounds were tested against bovine cerebral TPK1 (Bos taurus, UniProt A0A059UE90) (assay: Inhibitory activity against P-GS1 phosphorylation by bovine cerebral TPK1). Conditions: P-GS1 phosphorylation, 41.7 μM [γ-32P] ATP, 25° C., 2 hours; read-out: IC50.
Chain of bovine cerebral TPK1 (A0A059UE90 1-419): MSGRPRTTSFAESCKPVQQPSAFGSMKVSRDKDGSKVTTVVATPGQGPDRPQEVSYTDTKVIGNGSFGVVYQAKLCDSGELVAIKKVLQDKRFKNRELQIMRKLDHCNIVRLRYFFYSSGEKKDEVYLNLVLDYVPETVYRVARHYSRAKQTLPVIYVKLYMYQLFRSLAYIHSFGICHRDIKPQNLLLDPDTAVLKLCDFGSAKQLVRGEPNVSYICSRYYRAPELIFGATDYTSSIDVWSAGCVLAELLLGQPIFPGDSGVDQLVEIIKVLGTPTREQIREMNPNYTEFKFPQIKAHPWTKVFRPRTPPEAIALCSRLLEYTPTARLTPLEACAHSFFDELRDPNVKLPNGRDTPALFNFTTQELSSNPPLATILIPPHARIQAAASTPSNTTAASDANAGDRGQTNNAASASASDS
Format: biochemical
Protocol: Inhibitory Activity of the Medicament of the Present Invention Against P-GS1 Phosphorylation by Bovine Cerebral TPK1 […] The phosphorylation was started by adding ATP, and the reaction was conducted at 25° C. for 2 hours, and then stopped by adding 21% perchloric acid on ice cooling. The reaction mixture was centrifuged at 12,000 rpm for 5 minutes and adsorbed on P81 paper (Whatmann), and then the paper was washed four times with 75 mM phosphoric acid, three times with water and once with acetone. The paper was dried, and the residual radioactivity was measured using a liquid scintillation counter.
Work on `Cn1c(OC2CCCN(c3ccccc3F)C2)nc(-c2ccncn2)cc1=O` (centres unmarked) [1.103, 2-[1-(2-Fluoro-phenyl)piperidin-3-yloxy]-1-methyl-1H-[4,4′] bipyrimidinyl-6-one] yielded an IC50 of 49 nM.
`Cn1c(OC2CCCN(c3cccc(F)c3)C2)nc(-c2ccncn2)cc1=O` (centres unmarked) [1.104, 2-[1-(3-Fluoro-phenyl)piperidin-3-yloxy]-1-methyl-1H-[4,4′] bipyrimidinyl-6-one] showed an IC50 of 8.9 nM.
`Cn1c(OC2CCCN(c3ccc(F)cc3)C2)nc(-c2ccncn2)cc1=O` (centres unmarked) [1.105, 2-[1-(4-Fluoro-phenyl)piperidin-3-yloxy]-1-methyl-1H-[4,4′] bipyrimidinyl-6-one] showed an IC50 of 61.4 nM.
`COc1cccc(N2CCCC(Oc3nc(-c4ccncn4)cc(=O)n3C)C2)c1` (centres unmarked) [1.106, 2-[1-(3-Methoxy-phenyl)piperidin-3-yloxy]-1-methyl-1H-[4,4′]bipyrimidinyl-6-one] gave an IC50 of 1.5 nM.
Compound `COc1ccc(N2CCCC(Oc3nc(-c4ccncn4)cc(=O)n3C)C2)cc1` (centres unmarked) [1.107, 2-[1-(4-Methoxy-phenyl)piperidin-3-yloxy]-1-methyl-1H-[4,4′]bipyrimidinyl-6-one] has an IC50 of 98.2 nM.
`Cn1c(OC2CCCN(c3ccccn3)C2)nc(-c2ccncn2)cc1=O` (centres unmarked) [1.108, 1-Methyl-2-(1-pyridin-2-yl-piperidin-3-yloxy)-1H-[4,4′]bipyrimidinyl-6-one] gave an IC50 of 11.7 nM.
`Cn1c(OC2CCCN(S(=O)(=O)c3ccccc3)C2)nc(-c2ccncn2)cc1=O` (centres unmarked) [1.109, 2-(1-Benzenesulfonyl-piperidin-3-yloxy)-1-methyl-1H-[4,4′] bipyrimidinyl-6-one] showed an IC50 of 76.1 nM.
`Cn1c(OC2CCN(C(=O)OCc3ccccc3)CC2)nc(-c2ccncn2)cc1=O` [1.110, Benzyl 4-(1-methyl-6-oxo-1,6-dihydro-[4,4′]bipyrimidinyl-2-yloxy) piperidine-1-carboxylate] gave an IC50 of 140 nM.
`Cc1ccc(S(=O)(=O)N2CCC(Oc3nc(-c4ccncn4)cc(=O)n3C)CC2)cc1` [1.111, 1-Methyl-2-[1-(toluene-4-sulfonyl)piperidin-4-yloxy]-1H-[4,4′] bipyrimidinyl-6-one] gave an IC50 of 194 nM.
`Cn1c(OC2CCN(C(=O)Oc3ccccc3)CC2)nc(-c2ccncn2)cc1=O` [1.112, Phenyl 4-(1-methyl-6-oxo-1,6-dihydro-[4,4′]bipyrimidinyl-2-yloxy) piperidine-1-carboxylate] was tested, and the IC50 was 108 nM.
For `Cn1c(OC2CCNCC2)nc(-c2ccncc2F)cc1=O` [1.204, 6-(3-Fluoro-pyridin-4-yl)-3-methyl-2-(piperidin-4-yloxy)-3H-pyrimidin-4-one], the IC50 was 245 nM.
`Cn1c(OC2CCN(c3ccccc3)CC2)nc(-c2ccncn2)cc1=O` [1.205, 1-Methyl-2-(1-phenyl-piperidin-4-yloxy)-1H-[4,4′]bipyrimidinyl-6-one] showed an IC50 of 37.6 nM.
`Cc1ccccc1N1CCC(Oc2nc(-c3ccncn3)cc(=O)n2C)CC1` [1.206, 1-Methyl-2-(1-o-tolyl-piperidin-4-yloxy)-1H-[4,4′]bipyrimidinyl-6-one] showed an IC50 of 59.9 nM.
With `Cn1c(OC2CCN(c3ccc(-c4ccncc4)cc3)CC2)nc(-c2ccncc2F)cc1=O` [1.207, 6-(3-Fluoro-pyridin-4-yl)-3-methyl-2-[1-(4-pyridin-4-yl-phenyl)piperidin-4-yloxy]-3H-pyrimidin-4-one] the IC50 was 32.6 nM.
For `Cn1c(OC2CCN(c3ccc(N4CCNCC4)cc3)CC2)nc(-c2ccncn2)cc1=O` [1.208, 1-Methyl-2-[1-(4-piperazin-1-yl-phenyl)-piperidin-4-yloxy]-1H-[4,4′]bipyrimidinyl-6-one], the IC50 was 10.7 nM.
Work on `CN1CCN(c2ccc(N3CCC(Oc4nc(-c5ccncn5)cc(=O)n4C)CC3)cc2)CC1` [1.209, 1-Methyl-2-{1-[4-(4-methyl-piperazin-1-yl)phenyl]piperidin-4-yloxy}-1H-[4,4′]bipyrimidinyl-6-one] yielded an IC50 of 17.9 nM.
In the case of `CC(=O)N1CCN(c2ccc(N3CCC(Oc4nc(-c5ccncn5)cc(=O)n4C)CC3)cc2)CC1` [1.210, 2-{1-[4-(4-Acetyl-piperazin-1-yl)phenyl]piperidin-4-yloxy}-1-methyl-1H-[4,4′]bipyrimidinyl-6-one], the IC50 is reported as 27.4 nM.
`Cn1c(OC2CCN(c3ccc(N4CCN(C(=O)OC(C)(C)C)CC4)cc3)CC2)nc(-c2ccncn2)cc1=O` [1.211, tert-Butyl 4-{4-[4-(1-methyl-6-oxo-1,6-dihydro-[4,4′]bipyrimidinyl-2-yloxy)piperidin-1-yl]phenyl}piperazine-1-carboxylate] was tested, and the IC50 was 977 nM.
Compound `CC(=O)N1CCN(Cc2ccc(N3CCC(Oc4nc(-c5ccncn5)cc(=O)n4C)CC3)cc2)CC1` [1.212, 2-{1-[4-(4-Acetyl-piperazin-1-ylmethyl)phenyl]piperidn-4-yloxy}-1-methyl-1H-[4,4′]bipyrimidinyl-6-one] has an IC50 of 64.9 nM.
`Cn1c(OC2CCN(c3ccc(CN4CCOCC4)cc3)CC2)nc(-c2ccncn2)cc1=O` [1.213, 1-Methyl-2-[1-(4-morpholin-4-ylmethyl-phenyl)piperidin-4-yloxy]-1H-[4,4′]bipyrimidinyl-6-one] gave an IC50 of 19.4 nM.
Compound `Cn1c(OC2CCN(c3ccc(CN4CCCCC4)cc3)CC2)nc(-c2ccncn2)cc1=O` [1.214, 1-Methyl-2-[1-(4-piperidin-1-ylmethyl-phenyl)piperidin-4-yloxy]-1H-[4,4′]bipyrimidinyl-6-one] has an IC50 of 16.1 nM.
For `Cn1c(OC2CCN(c3ccc(CN4CCCCC4)cc3)CC2)nc(-c2ccncc2)cc1=O` [1.215, 3-Methyl-2-[1-(4-piperidin-1-ylmethyl-phenyl)piperidin-4-yloxy]-6-pyridin-4-yl-3H-pyrimidin-4-one], the IC50 was 50.1 nM.
Compound `Cn1c(OC2CCN(c3ccc(CN4CCCCC4)cc3)CC2)nc(-c2ccncc2F)cc1=O` [1.216, 6-(3-Fluoro-pyridin-4-yl)-3-methyl-2-[1-(4-piperidin-1-ylmethyl-phenyl)piperidin-4-yloxy]-3H-pyrimidin-4-one] has an IC50 of 10.9 nM.
For `Cn1c(OC2CCN(c3ccc(CN4CCCC4)cc3)CC2)nc(-c2ccncn2)cc1=O` [1.217, 1-Methyl-2-[1-(4-pyrrolidin-1-ylmethyl-phenyl)piperidin-4-yloxy]-1H-[4,4′]bipyrimidinyl-6-one], the IC50 was 12 nM.
Compound `Cn1c(OC2CCN(c3ccc(CN4CCCC4=O)cc3)CC2)nc(-c2ccncc2F)cc1=O` [1.218, 6-(3-Fluoro-pyridin-4-yl)-3-methyl-2-{1-[4-(2-oxo-pyrrolidin-1-ylmethyl)phenyl]piperidin-4-yloxy}-3H-pyrimidin-4-one] has an IC50 of 153 nM.
`Cn1c(OC2CCN(c3ccc(CN4Cc5ccccc5C4)cc3)CC2)nc(-c2ccncn2)cc1=O` [1.219, 2-{1-[4-(1,3-Dihydro-isoindol-2-ylmethyl)phenyl]piperidin-4-yloxy}-1-methyl-1H-[4,4′]bipyrimidinyl-6-one] showed an IC50 of 8.4 nM.
`CN(C)Cc1ccc(N2CCC(Oc3nc(-c4ccncn4)cc(=O)n3C)CC2)cc1` [1.220, 2-[1-(4-Dimethylaminomethyl-phenyl)piperidin-4-yloxy]-1-methyl-1H-[4,4′]bipyrimidinyl-6-one] was tested, and the IC50 was 21.2 nM.
`Cn1c(OC2CCN(c3cccc(CN4CCOCC4)c3)CC2)nc(-c2ccncn2)cc1=O` [1.221, 1-Methyl-2-[1-(3-morpholin-4-ylmethyl-phenyl)piperidin-4-yloxy]-1H-[4,4′]bipyrimidinyl-6-one] was tested, and the IC50 was 31.5 nM.
`CN1CCN(Cc2cccc(N3CCC(Oc4nc(-c5ccncn5)cc(=O)n4C)CC3)c2)CC1` [1.222, 1-Methyl-2-{1-[3-(4-methyl-piperazin-1-ylmethyl)phenyl]piperidin-4-yloxy}-1H-[4,4′] bipyrimidinyl-6-one] showed an IC50 of 21.5 nM.
For `Cn1c(OC2CCN(c3cccc(CN4CCCCC4)c3)CC2)nc(-c2ccncn2)cc1=O` [1.223, 1-Methyl-2-[1-(3-piperidin-1-ylmethyl-phenyl)piperidin-4-yloxy]-1H-[4,4′]bipyrimidinyl-6-one], the IC50 was 9.4 nM.
With `Cn1c(OC2CCN(c3cccnc3)CC2)nc(-c2ccncn2)cc1=O` [1.224, 1-Methyl-2-(1-pyridin-3-yl-piperidin-4-yloxy)-1H-[4,4′]bipyrimidinyl-6-one] the IC50 was 29.8 nM.
In the case of `Cn1c(OC2CCN(c3ccc4c(c3)CNC4)CC2)nc(-c2ccncn2)cc1=O` [1.225, 2-[1-(2,3-Dihydro-1H-isoindol-5-yl)piperidin-4-yloxy]-1-methyl-1H-[4,4′]bipyrimidinyl-6-one], the IC50 is reported as 9.4 nM.
`CN1Cc2ccc(N3CCC(Oc4nc(-c5ccncn5)cc(=O)n4C)CC3)cc2C1` [1.226, 1-Methyl-2-[1-(2-methyl-2,3-dihydro-1H-isoindol-5-yl)piperidin-4-yloxy]-1H-[4,4′]bipyrimidinyl-6-one] showed an IC50 of 23.7 nM.
`Cn1c(OC2CCN(c3ccc4c(c3)CN(Cc3ccccc3)C4)CC2)nc(-c2ccncn2)cc1=O` [1.227, 2-[1-(2-Benzyl-2,3-dihydro-1H-isoindol-5-yl)piperidin-4-yloxy]-1-methyl-1H-[4,4′]bipyrimidinyl-6-one] was tested, and the IC50 was 16 nM.
With `Cn1c(OC2CCN(c3ccc([N+](=O)[O-])s3)CC2)nc(-c2ccncn2)cc1=O` [1.228, 1-Methyl-2-[1-(5-nitro-thiophen-2-yl)piperidin-4-yloxy]-1H-[4,4′] bipyrimidinyl-6-one] the IC50 was 555 nM.
Work on `Cn1c(OC2CCN(c3cncnc3)CC2)nc(-c2ccncc2F)cc1=O` [1.229, 6-(3-Fluoro-pyridin-4-yl)-3-methyl-2-(1-pyrimidin-5-yl-piperidin-4-yloxy)-3H-pyrimidin-4-one] yielded an IC50 of 216 nM.
`CC(=O)N1Cc2ccc(N3CCC(Oc4nc(-c5ccncn5)cc(=O)n4C)CC3)cc2C1` [1.230, 2-[1-(2-Acetyl-2,3-dihydro-1H-isoindol-5-yl)piperidin-4-yloxy]-1-methyl-1H-[4,4′]bipyrimidinyl-6-one] gave an IC50 of 154 nM.
For `Cn1c(OC2CCN(c3ccc(CN4CCCCC4)cc3)C2)nc(-c2ccncn2)cc1=O` (centres unmarked) [1.231, 1-Methyl-2-[1-(4-piperidin-1-ylmethyl-phenyl)pyrrolidin-3-yloxy]-1H-[4,4′]bipyrimidinyl-6-one], the IC50 was 12.8 nM.
